Results published in article PMC6143478, “Lipophilic activated ester prodrug approach for drug delivery to the intestinal lymphatic system” (Journal of Controlled Release, 2018).
≈ marks a conversion by molar mass, not a printed value. Like-named read-outs stand apart in the source and are kept apart here.

How the values were obtained:
[1] = TG solubility measurement in sesame oil; type: physicochemical; details: oil or lipid, thermodynamic from solid, 37 °C
Description: Compounds were dissolved in fresh aliquots of sesame oil in excessive amounts in glass vials (in triplicate) and stirred using a magnetic stirring bar at 37 °C for 72 h. The mixture was then filtered by centrifugation in a Costar Spin-X Centrifuge Tube (Fisher Scientific, Loughborough, UK) at 2400 g for 5 min. The filtrates were analysed for concentration of the tested compounds by means of HPLC.

human chylomicrons (CM) = assay: Ex vivo association with human plasma-derived chylomicrons; type: in vitro ADME; details: in words
Excerpt: The protocol for preparation of human plasma-derived CM emulsion was approved by the Faculty of Medicine and Health Sciences Research Ethics Committee, Queens Medical Centre, Nottingham University Hospitals (BT12102015 CBS SoP). Healthy male volunteers of 19–40 years old and with body mass index of 18.5–25.0 were enrolled in the study after providing informed consent. The participants were excluded if any medication was used within one week prior to enrolment. On the morning of the study, participants received a high-fat meal (equivalent to a full English breakfast). Between 3 and 4 h following breakfast, 30 mL of blood was collected using heparinised tubes (Vacutainer® Blood Collection Tubes) and centrifuged (800 g, 10 min, 15 °C) to obtain plasma.
CM separation was performed as previously reported with minor modifications. Briefly, KBr (0.57 g) was mixed with 4 mL of plasma to yield density of 1.1 g/mL. PBS with densities of 1.006, 1.019, and 1.063 g/mL were prepared by adding appropriate amounts of KBr. These PBS of different densities were layered on top of the plasma to build density gradient layers in polyallomer ultracentrifuge tubes. The samples were then centrifuged at 268,350 g for 35 min at 15 °C using an ultracentrifuge (SORVALL® TH-641 Rotor, Thermo Fisher Scientific, UK). Following ultracentrifugation, approximately 1 mL of the upper layer containing CM was collected. TG concentration of CM emulsion was assessed using the TG enzymatic kit (Sigma Aldrich, Dorset, UK). TG concentration of the emulsion was adjusted to 100 mg/dL by diluting with PBS of 1.006 g/mL density. The CM emulsion was stored at 4 °C until the association assay (˂24 h).
The association of the compounds with artificial lipid particle emulsion and human CM was assessed using previously reported methodology with minor modifications. Briefly, 1 mL of artificial lipid particle or CM emulsions (TG concentration 100 mg/dL) was used for the association assay. The emulsion was spiked with stock solutions of tested compounds (in acetonitrile) to give a final concentration of 1.755 μM. The reaction mixtures were incubated at 37 °C for 1 h with magnetic stirring at 300 rpm. Following the incubation, density gradient ultracentrifugation was applied as described above to isolate the artificial lipid particles or CM associated with the tested compounds from the rest of the experimental medium. All experiments were conducted in quintuplicates or above.

DOHH2 cells = assay: Cell growth inhibition MTT assay, DOHH2; type: cell-based; details: 72 h, RA 0.425 μM (0.625% × GI50 of RA)
Description: (§1) DLBCL cell lines of DOHH2 and VAL were obtained from the Gene Regulation and RNA Biology group in University of Nottingham. Cell growth inhibition was assessed by MTT assay with a minor modification from previously reported methods [[25], [26], [27]]. Cells were seeded at a density of 2000 cells/well and allowed to adapt overnight. Test compounds were serial-diluted with dimethyl sulfoxide (DMSO) and spiked on the next day to yield 0.1% (v/v) DMSO. Control wells were treated with 0.1% DMSO vehicle alone. At the time of drug addition, separately prepared wells were processed for Tzero readings as previously described. The treated cells were incubated further for 72 h at 37 °C and processed for cell growth assessments.
(§2) Assessment of statistical significance of differences between two groups was conducted by means of two-tailed unpaired t-test. Statistical significance among three or more groups was assessed by means of a one-way ANOVA followed by Tukey's multiple comparisons test. Statistical significance was declared when a p-value was lower than 0.05. […] Pharmacokinetic parameters were calculated by non-compartmental analysis using Phoenix WinNonlin 6.3 software (Pharsight, Mountain View, CA, USA).
(§3) The anticancer effects of BEX and RA were assessed by MTT assay using DLBCL cell lines. The GI50 of each drug was firstly determined in each cell line. […]

[2] = Plasma pharmacokinetics following oral administration in rats; type: in vivo, rat; details: for AUC(0-inf) / AUC(0-t) / half-life / Cmax: male, Sprague Dawley, rat, plasma, po, 10 mg/kg, dose equivalent to 10 mg/kg BEX; for AUC(0-inf) / AUC(0-t) / half-life: BEX in plasma; for Cmax: Cmax of BEX in plasma, read-out: C0 or Cmax; for Foral: oral bioavailability of BEX, calculated on AUC0→t after i.v. BEX 2.5 mg/kg [33]
Description: (§4) The protocols for pharmacokinetic and biodistribution experiments in this study were reviewed and approved by the University of Nottingham Ethical Review Committee in accordance with the Animals [Scientific Procedures] Act 1986. Male Sprague Dawley rats (Charles River Laboratories, UK) weighing 350–380 g were used. The animals were housed in the Bio Support Unit, University of Nottingham. Continuous lymph collection was performed according to a protocol approved by the Institutional Animal Care and Use Committee at Rutgers, The State University of New Jersey. Male Sprague Dawley rats (Envigo, Inc., NJ, USA) weighing 300–350 g were used for the continuous lymph collection. Animals were allowed free access to food and water and were acclimatised for at least 6 days prior to any procedures at both institutions in a controlled-temperature environment with 12 h light/dark cycles.
Jugular vein cannulation surgery procedures were conducted under general anaesthesia for blood sampling. The animals were allowed two days to recover following surgery and were fasted up to 12 h prior to experiments with free access to drinking water. Formulations were prepared at concentrations equivalent to 2.5 mg/mL and 10 mg/mL of active drug for intravenous and oral administration, respectively. Solutions of the tested compounds in PEG400 were used as the dosing vehicle for intravenous administration. For oral administration, all prodrugs were administered as a solution in sesame oil to stimulate intestinal lymphatic transport. For oral administration of BEX and RA, oral gavage of sesame oil was administered prior to administration of BEX or RA solution in PEG400 due to low solubility of the two compounds in TG. In the lipid-free group BEX was administered orally formulated as a solution in PEG400. The formulations were administered by an oral gavage for oral administration or via the jugular vein cannula followed by 0.3 mL heparinised saline (50 IU/mL) for intravenous injection. Blood samples of 250 μL volume were collected from the cannula at pre-determined time points following administration. NaF (10 mg/mL) was used as an anticoagulant and inhibitor of esterase activity. Blood samples were centrifuged at 3000 g for 10 min to obtain plasma.
(§5) A combination of protein precipitation and liquid-liquid extraction was applied to samples prior to HPLC injection. To 100 μL sample, 300 μL of acetonitrile was added for protein precipitation and then 300 μL of pH modifier was added when necessary (Supplementary Material Table S2). […] The organic layer was separated and evaporated under N2 gas. Reconstitution solvent (100 μL) was used as detailed in Supplementary Material Table S2 and 40 μL was injected into the HPLC-UV system. […] Therefore, storage and preparation of all samples were performed within the time frame and conditions of confirmed stability.
(§6) The HPLC-UV system consisting of a separation module (Waters Alliance 2695) equipped with a UV detector (Waters 996) was used for analysis. Samples in the autosampler were maintained at 4 °C and the column at 40 °C. The stationary and mobile phases were used as specified in Supplementary Material Table S2. BEX and its prodrugs were detected at 259 nm and RA and its prodrugs at 357 nm.
Assessment of statistical significance of differences between two groups was conducted by means of two-tailed unpaired t-test. Statistical significance among three or more groups was assessed by means of a one-way ANOVA followed by Tukey's multiple comparisons test. Statistical significance was declared when a p-value was lower than 0.05. The analyses were performed on GraphPad Prism version 7.01 (GraphPad Software, Inc., La Jolla, CA, USA). The concentrations that inhibited cell growth by 50% (GI50) were also calculated using GraphPad Prism and isobole plots were presented following a previously reported method to assess synergy between BEX and RA [28]. […]

VAL cells = assay: Cell growth inhibition MTT assay, VAL; type: cell-based; details: 72 h, RA 0.400 μM (0.625% × GI50 of RA)
Description: as §1, §2, §3

[3] = Biodistribution to mesenteric lymph nodes (MLN) and lymph following oral administration in rats; type: in vivo; details: BEX analyte, dose equivalent to 10 mg/kg BEX, rat, in words
Description: as §4
Formulations were prepared as described in the above pharmacokinetic study and were delivered by an oral gavage. Animals were euthanised at pre-determined time points. Blood was collected from the posterior vena cava and lymph samples were taken from the mesenteric lymph duct. MLNs were dissected and collected as previously described. The MLNs were isolated from surrounding tissue with care not to compromise the integrity of the lymph nodes. The MLNs were homogenised (POLYTRON® PT 10–35 GT, Kinematica AG, Luzern, Switzerland) with 10 mg/mL NaF in water (1,2, w/v) on an ice bath prior to sample preparation for HPLC analysis.
as §5, §6

| AUC(0-inf) ([2]; p.o. (lipid-based)) [ng·h/mL] | AUC(0-t) ([2]; p.o. (lipid-based)) [ng·h/mL] | half-life ([2]; p.o. (lipid-based)) [min] | AUC(0-t) ([2]; p.o. (lipid-free)) [ng·h/mL] | half-life ([2]; p.o. (lipid-free)) [min] | AUC(0-inf) ([2]; p.o. (lipid-free, PEG400)) [ng·h/mL] | Cmax ([2]; p.o. (lipid-based)) [ng/mL] | Cmax ([2]; p.o. (lipid-free)) [ng/mL] | Foral ([2]; p.o. (lipid-based)) [%] | Foral ([2]; p.o. (lipid-free)) [%] | concentrations of BEX in intestinal lymphatics (MLNs, lymph) relative to plasma [3] | Compound | solubility at 72 h [1] [µg/mL] | difference in affinity for artificial emulsion versus natural human CM (human chylomicrons (CM)) | cell growth inhibition by BEX in conjunction with RA (DOHH2 cells) | cell growth inhibition by BEX in conjunction with RA (VAL cells) |
| --- | --- | --- | --- | --- | --- | --- | --- | --- | --- | --- | --- | --- | --- | --- | --- |
| – | – | – | – | – | – | – | – | – | – | – | C=C(c1ccc(C(=O)OCC(=O)N(CC)CC)cc1)c1cc2c(cc1C)C(C)(C)CCC2(C)C [prodrug 20] | 2670 ± 60 (≈ 5.78 mM) | significant differences | – | – |
| 6620 ± 1310 | 5660 ± 1760 | 222 ± 72 | 4910 ± 1790 | 180 ± 42 | 5840 ± 2140 | 1100 ± 432 | 899 ± 338 | 30.6 ± 9.5 | 26.5 ± 9.6 | lower than those in plasma | C=C(c1ccc(C(=O)O)cc1)c1cc2c(cc1C)C(C)(C)CCC2(C)C [BEX, bexarotene] | – | – | significantly and synergistically inhibited | significantly and synergistically inhibited |
